Data on two compounds can be found in patent US9006212B2, “Compositions and methods for pest control” (Massachusetts Institute of Technology, priority 2009, dated 2015).

Assay [1] relates to other β-glucanases. The experiment in a line: β(1,3)-glucanase activity assay, tGNBP-2-depleted termite lysate. Type of assay: biochemical, N. corniger. To be noted: tGNBP-2-depleted lysate, FIG. 5C. The method, then: (§1) FIG. 2 provides results from a microsphere-based flow cytometric assay for β(1,3)-glucanase activity. Laminarin was labeled at the reducing end with rhodamine green X-succinyl ester, stably adsorbed on 3.0μ-diameter polystyrene microspheres in carbonate/bicarbonate buffer at pH=9.6 and washed in 100 mM sodium acetate pH 5.5. Samples were then incubated with the fluorescent microspheres for varying time periods starting from 15 min and analyzed by flow cytometry. Purified β(1,3)-glucanase at 100 μg/mL (0.1 mU/mL) and sodium acetate buffer alone were used as positive and negative controls, respectively. Finally, fluorescence data were transformed to % activity and plotted vs. samples or concentrations. β(1,3)-glucanase activity was measured by a gel electrophoresis assay (39) and by a flow cytometric method developed (FIG. 2). Briefly, samples were run on Carboxymethyl Curdlan REmazol Brilliant Blue (CN-Curdlan-RBB, Lowe Biochemica, Germany). […] Samples were mixed with 1 μL of the microsphere suspension, incubated for 15-30 minutes at 37° C. and analyzed by flow cytometry. Commercially available purified β(1,3)-glucanase from Helix pomatia or Bacilus subtilis was used at 0.1 mU/mL as positive control and results were expressed as % activity of this control.

In assay [2] the test system is termites infected with M. anisopliae. Put plainly: In-vivo survival and exposure assays. Further details: species or system N. corniger. The method, then: Conidia (approx. 3×10^7/mL) were centrifuged at 12,000×g for 1 minute and then suspended in 600 μL 0.1% Tween 80 by vortexing. Two groups of 12 large workers were exposed to filter paper (Watman 5) moistened with these suspensions in 35×15 mm petri dishes for 20 hours. The filter paper was replaced with sterile water-moistened filter paper and dead termites were removed after a daily census of survivorship. tGNBP-2 treatment was performed with conidia suspended in a sample of the immunoprecipitated protein overnight at 25° C., followed by extensive washing in PBS containing 0.1% Tween 80. Dead termites were removed daily, surface sterilized with 70% ethanol and incubated in sterile plates at RT for 4 days for post mortem analysis. For exposure to laminarin or LPS, filter papers were moistened with 300 μL of 0.5 mg/mL or 5 mg/mL solutions of either carbohydrate. Termites were kept on moist filter paper for 24 hours prior to exposure with conidia (10^7/mL). Controls included termites that were not exposed to sugars and/or conidia (0.1% Tween 80). Data were analyzed by Mann-Whitney U test and Wilcoxon Signed Rank tests with Bonferroni corrections for multiple testing. Termite survival data were analyzed by Cox Regression Analysis. Flow histogram SDs were calculated using software produced half-peak coefficients of variance (% HPCV×mean). Data are presented as means±SD.

The subject of assay [3] is termite gut symbionts. To be noted: reference 34; cited from earlier work.
The subject of assay [4] is SAPK/JNK signaling in hemocytes. The experiment in a line: Intracellular flow cytometry for SAPK/JNK phosphorylation in termite hemocytes. Type of assay: cell-based, N. corniger. As for the experimental part:
N. corniger workers, large workers or soldiers (whole termites or isolated tissues) were surface sterilized (brief wash with 5% hypochlorite and 3 washes with sterile water) and homogenized in acetate buffer (200 mM, pH 5.0, 4 μL/termite) with Biomasher® columns (pore size 80-145μ, […], San Carlos, Calif.) according to the manufacturer's instructions. Cuticular washes were prepared by gently agitating chilled workers in 0.1% Tween 80 for 5 seconds (10 μL/worker). Wash samples were concentrated with a P10 Microcon® filter (Millipore, Billerica, Mass.). Termite hemocytes were collected from hemolymph drawn from 10 chilled N. corniger workers (1 μL/termite) using a micropipette and kept in ice-cold Burns-Tracy saline as described previously (37). Whole cell preparations were obtained by gentle trituration of termites in ice-cold Burns-Tracy saline. Hemocyte staining was performed in 0.1% w/v BSA, 0.01% w/v NaN3 in PBS, 30 min on ice per antibody with a single wash with buffer between antibodies (38). Primary antibodies: anti-tGNBP-2 (5 μg/mL) or rabbit IgG (5 μg/mL, Sigma, St. Louis, Mo.); secondary antibody: anti-rabbit PE (1:400, Invitrogen, Carlsbad, Calif.). […] Flow cytometry was performed on a Beckman-Coulter Cell Lab QuantaTM SC MPL-automated flow cytometer and analyzed with Quanta AnalysisTM software.
In general terms: In flow cytometry, cells or beads pass a laser one at a time.

The subject of assay [5] is tGNBP-2 expression. Put plainly: Induction of tGNBP-2 by laminarin challenge on isolated termite cells, Western blot. It is filed as cell-based, N. corniger. To be noted: 20 mM, FIG. 5E. As for the experimental part:
N. corniger workers, large workers or soldiers (whole termites or isolated tissues) were surface sterilized (brief wash with 5% hypochlorite and 3 washes with sterile water) and homogenized in acetate buffer (200 mM, pH 5.0, 4 μL/termite) with Biomasher® columns (pore size 80-145μ, […], San Carlos, Calif.) according to the manufacturer's instructions. Cuticular washes were prepared by gently agitating chilled workers in 0.1% Tween 80 for 5 seconds (10 μL/worker). Wash samples were concentrated with a P10 Microcon® filter (Millipore, Billerica, Mass.). Termite hemocytes were collected from hemolymph drawn from 10 chilled N. corniger workers (1 μL/termite) using a micropipette and kept in ice-cold Burns-Tracy saline as described previously (37). Whole cell preparations were obtained by gentle trituration of termites in ice-cold Burns-Tracy saline. Anti-tGNBP-2 antibodies were raised in rabbits and purified by standard methods (GenScript, Piscataway, N.J.). Antibodies were covalently linked to 1.0μ diameter Dynabeads® MyOneTM carboxylic acid functionalized magnetic beads (Invitrogen) according to the manufacturer's instructions. Fresh termite extract was diluted 1:1 with IP buffer (25 mM Tris-HCl pH 7.6, 150 mM NaCl, 1% v/v NP-40, 1% v/v protease inhibitor cocktail), and incubated with beads for 1 hour at RT. […]
(In general: In western blotting, separated proteins are transferred to a membrane and probed.)

Assay [6] deals with M. anisopliae conidia. Put plainly: Antifungal assays and combinatorial cytotoxicity mapping on conidia. Type of assay: cell-based, Metarhizium anisopliae. As for the experimental part: This mix was incubated for 18-24 hours at 25° C., then plated onto potato dextrose agar 100×15 mm plates and supplemented with 50 μg/mL ampicillin CFUs were counted following a 4-day incubation at 25° C. Femtoliter changes in conidial cell volume were directly measured by flow cytometry. Samples of M. anisopliae conidia in sodium acetate (0.1M, pH 5.5) were incubated in 384 well plates with samples from HPLC fractions in different combinations (F1+F1, F1+F2, F1+F3 . . . F2+F2, F2+F3 . . . F3+F3 . . . , 10 μL of each fraction) overnight at 25° C. and analyzed by flow cytometry. tGNBP-2 was depleted from 250 μL of each fraction as described above, and supernatants were collected and used for the assay.

In assay [7] the test system is tGNBP-2. Put plainly: β(1,3)-glucanase activity assay (flow cytometric microsphere assay, zymogram). The following applies: dose/response, FIG. 5C. Type of assay: biochemical, N. corniger. As for the experimental part: as §1
The subject of assay [8] is tGNBP-2 expression. The experiment in a line: tGNBP-2 expression following exposure of termites to LPS or laminarin. Type of assay: in vivo, N. corniger. The following applies: 0.5 or 5 mg/mL, FIG. 4F. The method, then: Anti-tGNBP-2 antibodies were raised in rabbits and purified by standard methods (GenScript, Piscataway, N.J.). Antibodies were covalently linked to 1.0μ diameter Dynabeads® MyOne™ carboxylic acid functionalized magnetic beads (Invitrogen) according to the manufacturer's instructions. Fresh termite extract was diluted 1:1 with IP buffer (25 mM Tris-HCl pH 7.6, 150 mM NaCl, 1% v/v NP-40, 1% v/v protease inhibitor cocktail), and incubated with beads for 1 hour at RT. Beads were isolated, washed with IP buffer, and eluted with a commercial neutral pH buffer (Pierce, Rockford, Ill.). Eluate was desalted and concentrated using a centrifugal column (Vivaspin 10K, Sartorius, Goettingen, Germany) and reconstituted in sodium acetate (0.1M, pH 5.5). SDS-PAGE and western blots were performed and developed by standard procedures; loading amounts were validated by BCA assay. Anti-tGNBP-2 was used at 2.5 μg/mL followed by anti-rabbit HRP (Cell Signaling) at 1:1000. Blots were visualized on a Kodak ImageStation 2000R. […] Conidia (approx. 3×10^7/mL) were centrifuged at 12,000×g for 1 minute and then suspended in 600 μL 0.1% Tween 80 by vortexing. Two groups of 12 large workers were exposed to filter paper (Watman 5) moistened with these suspensions in 35×15 mm petri dishes for 20 hours. […]

Assay [9] relates to tGNBP-2. The experiment in a line: In-vitro binding interference assay with FITC-labeled LPS. The arrangement: species or system N. corniger. The following applies: increasing concentrations, FIG. 5A. The method, then: Isolated tGNBP-2 or rhCD14 (R&D Systems, Minneapolis, Minn.) were linked to 3.0μ diameter polystyrene beads (Polysciences) by a 3-hour incubation in boric acid (0.1M, pH 8.5) followed by 3 washes in cold PBS containing 0.1% v/v rabbit serum. Formaldehyde-inactivated pathogenic strains were labeled with FITC as previously described (41). Beads were incubated with labeled pathogens in buffer at 37° C. for 30 minutes and analyzed by flow cytometry. For interference assays, tGNBP-2-adsorbed beads were incubated with either LPS or laminarin at various concentrations, then directly stained with FITC-labeled LPS (Sigma) and analyzed by FACS.

In the case of `O=C1O[C@H](CO)[C@@H](O)[C@H](O)[C@H]1O` [GDL, D-δ-gluconolactone], in assay [1], the “effect on other β-glucanases” value is “left other β-glucanases intact”. Also, the “susceptibility to infection with tGNBP-2-treated conidia” value in assay [2] (conidia treated with isolated tGNBP-2 prior to infection) is “restored susceptibility to infection”. The “mortality of termites in the absence of active infection” value in assay [2] (no infection) is reported as “caused accelerated mortality”. Also, the “mortality of termites infected with M. anisopliae” value in assay [2] (treated for 24 hours prior to infection, FIG. 6) is on record as “accelerated mortality”. In addition, the “blocking of gut symbiont pathways for polysaccharide utilization” value in assay [3] was “not blocked”. Further, the “hemocyte population whose activation is affected” value in [4] (two hemocyte populations expressing tGNBP-2) is reported as “affected only the activation of granular hemocytes”. Besides, the “SAPK/JNK phosphorylation activation response of hemocytes” value in [4] (β(1,3)-D-glucan challenge, FIG. 5D) is on record as “inhibited this activation response”. Also, the “induction of tGNBP-2 by laminarin challenge” value in [5] was “blocks induction”. Further, the “direct toxic effect on conidia” value in assay [6] is recorded as “no direct toxic effect”. Further, the “blocking of the β(1,3)-glucanase activity of tGNBP-2” value in assay [7] is on record as “efficiently blocked”.

laminarin: in assay [2] (termites exposed to 0.5 or 5 mg/mL for 24 hours prior to conidia, FIG. 4E), the “resistance to M. anisopliae infection” value is reported as “improved resistance”. Also, the “tGNBP-2 expression following exposure” value in [8] was “significant upregulation”. In [9], the “interference with fluorescent LPS binding to bead-linked tGNBP-2” value is “does not interfere”.
